“Also recorded” adds a separate entry of the source.
Columns and labels:
[1] = test system: Apc-null Lgr5-GFP^hi ISCs and Lgr5-GFP^low progenitors; experiment: Orthotopic transplantation of Apc-null cells into recipient colons; assay type: in vivo, mouse; conditions: 10,000 cells from GW501516-treated mice; for adenoma initiation by transplanted Apc-null Lgr5-GFP^low progenitors: vehicle 0±0
Text: To test this possibility, the present inventors generated Apc^loxp/loxp; Lgr5-EGFP-IRES-CreERT2 mice to assess whether pharmacological PPAR-δ activation modifies the tumorigenic capacity of the Lgr5-GFP^low progenitors. Injection with tamoxifen leads to Apc-loss in the Lgr5-GFP^hi ISCs, which in turn generate Apc-null Lgr5-GFP^low progenitors. Four days after tamoxifen administration, we flow sorted Apc-null Lgr5-GFP^hi ISCs and Lgr5-GFP^low progenitors from vehicle and PPAR-δ agonist treated mice to assess the tumor-forming potential of these populations using separate assays (FIG. 7B): first, we examined their ability to give rise to adenomatous organoids in culture; and second, we interrogated the ability of 10,000 freshly sorted stem and progenitor cells to initiate adenomatous lesions in syngeneic recipient colons.
Apc^loxp/loxp; Lgr5-EGFP-IRES-CreERT2 mice were treated with vehicle or GW501516 for one month, and then injected with two doses of tamoxifen I.P. Four days later, Apc-null Lgr5-GFP^hi ISCs and Lgr5-GFP^low progenitors were sorted by flow cytometry, as described above. For primary cell transplantations, 10,000 Apc-null Lgr5-GFP^hi ISCs and Lgr5-GFP^low progenitors were resuspended into 90% crypt culture media (as described) and 10% Matrigel™, then transplanted into the colonic lamina propria of C57BL/6 recipient mice by optical colonoscopy using an injection needle (Hamilton Inc., part number 7750-21, 30 gauge, Kel-F Hub NDL, 14 inches length, 45 degree bevel) and specialized syringe (Hamilton Inc, part number 81242, 500 μL, Model 1750 LT Threaded Plunger). Optical colonoscopy was performed using a Karl Storz Image 1 HD Camera System, Image 1 HUB CCU, 175 Watt Xenon Light Source, and Richard Wolf 1.9 mm/9.5 Fr Integrated Telescope (part number 8626.431). Four injections were performed per mouse. Mice then underwent colonoscopy four weeks later to assess tumor formation. Colonoscopy videos and images were saved for offline analysis. […]

[2] = test system: Olfm4+ ISCs and Cryptdin 4+ Paneth cells; experiment: In situ hybridization for Olfm4 and Cryptdin 4, proximal jejunum; assay type: in vivo, mouse; conditions: GW501516-treated mice vs vehicle
Text: The in situ hybridization probes used in this study correspond to expressed sequence tags or fully sequenced cDNAs obtained from Open Biosystems. The accession numbers (IMAGE mouse cDNA clone in parenthesis) for these probes are as follows: mouse Olfm4 BC141127 (9055739), mouse Cryptdin 4 BC134360 (40134597). Both sense and antisense probes were generated to ensure specificity by in vitro transcription using DIG RNA labelling mix (Roche) according to the manufacturer's instructions and to previously published detailed methods.^24,44

small intestinal crypts = experiment: Crypt organoid-forming (clonogenicity) assay in 3-D culture; assay type: cell-based, mouse; conditions: crypts from GW501516-treated mice vs vehicle

adenoma initiation by transplanted Apc-null Lgr5-GFP^low progenitors [1]: initiated tumors
adenoma initiation by transplanted Apc-null Lgr5-GFP^low progenitors ([1]; listed as PPAR-δ agonist): 0.58±0.16
intestinal adenoma formation by transplanted Apc-null Lgr5-GFP^hi ISCs ([1]; vehicle 0.67±0.13, listed as PPAR-δ agonist): 0.61±0.19
Structure (SMILES): Cc1cc(SCc2sc(-c3ccc(C(F)(F)F)cc3)nc2C)ccc1OCC(=O)O [GW501516, 2-[2-methyl-4-[[4-methyl-2-[4-(trifluoromethyl)phenyl]-1,3-thiazol-5-yl]methylsulfanyl]phenoxy]acetic acid]
Cryptdin 4+ Paneth cell numbers [2]: no impact; also recorded: remained unchanged
Olfm4+ ISC numbers per jejunal crypt [2]: augmented; also recorded: increased
organoid-forming capacity of intestinal crypts (small intestinal crypts): more organoids; also recorded: boosted the organoid-forming capacity

— US10426757B2, “Compositions and methods for promoting intestinal stem cell and/or non-stem progenitor cell function” (Whitehead Institute for Biomedical Research, priority 2014, dated 2019)
